Experiments:
rice sheath blight = assay: Test of resistance to rice sheath blight (bactericidal activity test); format: in vivo; settings: for Resistance to rice sheath blight: 400 mg/L, rice seedlings, sprayed 24 h before inoculation, 6 days after inoculation, visual inspection; for bactericidal activity against rice sheath blight: live pot test, Table 5, 400 mg/L
Description: Bactericidal activity test, the determination procedure is as follows:
Test of resistance to rice sheath blight: Select uniformly growing rice seedlings and spray them on the leaves at the set concentration, set a water spraying group as blank control, every treatment was repeated twice. After 24 h, the rice seedlings were inoculated with rice sheath blight strains and placed at room temperature (25±4° C.) for normal management after inoculation. The prevention and control effect was investigated by visual inspection 6 days after inoculation.

[1] = system: tobacco Mosaic virus (TMV); assay: Anti-tobacco Mosaic virus (TMV) activity, overall comparison of Test Example 1; format: in vivo; settings: 500 μg/mL; Table 4
Description: Determination of anti-tobacco Mosaic virus (TMV) activity by the following procedure:
After weighing, cryptolepine salt derivative, ningnanmycin and the original drug of ribavirin were dissolved in DMF to obtain 1×10^5 μg/mL mother solution, and then diluted to the required concentration with 1%. Tween 80 aqueous solution.
Select the 3-5 leaf stage of tobacco Xanthi nc with uniform growth, spray the whole plant, repeat each treatment 3 times, and set 1%. Tween80 aqueous solution as control. 24 h later, the leaf surface was coated with emery (500 mesh), the disease venom was dipped with a brush, and the whole leaf surface was gently rubbed twice along the direction of the branch pulse by using the brush, the leaf was supported by palm of hand, the virus concentration was 10 μg/mL, and the leaf was washed by water after inoculation. After 3 days, the number of disease spots was recorded and the prevention and control effect was calculated.
Select the 3-5 leaf stage of tobacco Xanthi nc with uniform growth, use a brush to vaccinate the virus in the whole leaf, the virus concentration is 10 μg/mL, and the leaf was washed with running water after inoculation. After the leaves were dried, the whole plant was sprayed with test sample, repeated 3 times every treatment, and 1%. Tween 80 aqueous solution was set as control. After 3 days, the number of disease spots was recorded and the prevention and control effect was calculated.
Select the 3-5 leaf stage of tobacco Xanthi nc with uniform growth, mix the test sample agent with the same volume of virus juice to passivate for 30 min, friction inoculation, virus concentration 20 μg/mL, the leaf was washed with running water after inoculation, repeat 3 times, set 1%. Tween 80 aqueous solution as control. 3 days later, the number of disease spots was calculated.
Relative inhibition rate (%)=[(number of dead spots of control group-number of dead spots of test sample group)/number of dead spots of control group]×100%.
Anti-tobacco Mosaic virus passivation activity test of all compounds was at a treatment dose of 500 μg/mL. The positive control was the commercial anti-plant virus agent viriazole.

Row | SMILES | Resistance to rice sheath blight (rice sheath blight) [%] | TMV activity compared with ribavirin [1] | bactericidal activity against rice sheath blight (rice sheath blight) | anti-TMV activity compared with commercial Ningnanmycin [1]
1 | Cc1ccc(S(=O)(=O)n2c3ccccc3c3c2cc2cc(Cl)ccc2[n+]3C)cc1.[Cl-] [Example 12] | 40 ± 0 |  |  | 
2 | CN1CCC(CNc2c3ccccc3[n+](C)c3c2[nH]c2ccccc23)CC1.[I-] [Example 45] | 30 ± 0 |  |  | 
3 | Cc1ccc(S(=O)(=O)n2c3ccccc3c3c2cc2ccccc2[n+]3CC2CCCCC2)cc1 [Example 19] | 20 ± 0 | better TMV activity than the ribavirin |  | 
4 | C[n+]1c2ccccc2c(NCC2CC2)c2[nH]c3ccccc3c21 [Example 28] | 60 ± 0 |  | more than 50% | 
5 | C[n+]1c2ccccc2c(NCCCC2CCCCC2)c2[nH]c3ccccc3c21.[I-] [Example 31] | 25 ± 5 |  |  | 
6 | Cc1ccc(S(=O)(=O)n2c3ccccc3c3c2cc2cc(F)ccc2[n+]3C)cc1.[Cl-] [Example 11] | 40 ± 0 |  |  | 
7 | CNCCCNc1c2ccccc2[n+](C)c2c1[nH]c1ccccc12.[I-] [Example 38] | 30 ± 0 |  |  | 
8 | C[n+]1c2ccccc2c(NCC(C)(C)N)c2[nH]c3ccccc3c21.[I-] [Example 36] | 35 ± 5 |  |  | 
9 | Cc1ccc(S(=O)(=O)n2c3ccccc3c3c2cc2cc(C)ccc2[n+]3C)cc1.[Cl-] [Example 9] | 70 ± 0 |  | more than 50% | 
10 | COc1ccc2c(c1)c1c(cc3ccccc3[n+]1C)n2S(=O)(=O)c1ccc(C)cc1.[Cl-] [Example 3] | 35 ± 5 |  |  | 
11 | Cc1ccc(S(=O)(=O)n2c3ccccc3c3c2cc2ccc(Cl)cc2[n+]3C)cc1 [Example 17] | 40 ± 0 |  |  | 
12 | C[n+]1c2ccccc2cc2[nH]c3ccc(Br)cc3c21 [Reference Example 1, 5-methyl-7-bromo 5H-indolo[3,2-b]quinoline, reference compound] | 0 |  |  | 
13 | Cc1ccc(S(=O)(=O)n2c3ccc(Cl)cc3c3c2cc2ccccc2[n+]3C)cc1.[Cl-] [Example 5] | 55 ± 5 | better TMV activity than the ribavirin | more than 50% | comparable to that of commercial Ningnanmycin
14 | Cc1nc(C(F)(F)F)c(C(=O)Nc2c(Br)cc(OC(F)(F)F)cc2Br)s1 [Thifluzamide, thifluzamide, reference compound] | 100 |  |  | 
15 | C[n+]1c2ccccc2c(NCC2CCCNC2)c2[nH]c3ccccc3c21.[I-] (stereo not drawn) [Example 43] | 30 ± 0 |  |  | 
16 | Cc1ccc(S(=O)(=O)n2c3ccc(C)cc3c3c2cc2ccccc2[n+]3C)cc1.[Cl-] [Example 2] | 40 ± 0 |  |  | 
17 | Cc1ccc(S(=O)(=O)n2c3ccccc3c3c2cc2cc(Br)ccc2[n+]3C)cc1.[Cl-] [Example 13] | 35 ± 5 | better TMV activity than the ribavirin |  | comparable to that of commercial Ningnanmycin
18 | CN(C)CC(C)(C)CNc1c2ccccc2[n+](C)c2c1[nH]c1ccccc12.[I-] [Example 39] | 25 ± 5 |  |  | 
19 | COc1ccc2c(c1)cc1c(c3ccccc3n1S(=O)(=O)c1ccc(C)cc1)[n+]2C.[Cl-] [Example 10] | 30 ± 0 |  |  | 
20 | CCCCC(CC)CNc1c2ccccc2[n+](C)c2c1[nH]c1ccccc12 (stereo not drawn) [Example 27] | 30 ± 0 | better TMV activity than the ribavirin |  | comparable to that of commercial Ningnanmycin
21 | Cc1ccc(S(=O)(=O)n2c3ccc(C#N)cc3c3c2cc2ccccc2[n+]3C)cc1.[Cl-] [Example 8] | 30 ± 0 |  |  | 

Row | SMILES | Resistance to rice sheath blight (rice sheath blight) [%] | TMV activity compared with ribavirin [1] | bactericidal activity against rice sheath blight (rice sheath blight) | anti-TMV activity compared with commercial Ningnanmycin [1]
22 | C[n+]1c2ccccc2c(NCCCCN)c2[nH]c3ccccc3c21.[I-] [Example 34] | 20 ± 0 | better TMV activity than the ribavirin |  | comparable to that of commercial Ningnanmycin
23 | Cc1ccc(S(=O)(=O)n2c3ccccc3c3c2cc2cc(C(F)(F)F)ccc2[n+]3C)cc1.[Cl-] [Example 14] | 60 ± 0 |  | more than 50% | 
24 | Cc1ccc(S(=O)(=O)n2c3ccccc3c3c2cc2ccccc2[n+]3C)cc1.[Cl-] [Example 1] | 95 ± 5 |  | more than 95% | 
25 | C[n+]1c2ccccc2c(NC2CCNCC2)c2[nH]c3ccccc3c21.[I-] [Example 41] | 40 ± 0 | better TMV activity than the ribavirin |  | 
26 | Cc1ccc(S(=O)(=O)n2c3ccccc3c3c2cc2ccc(C)cc2[n+]3C)cc1 [Example 16] | 95 ± 5 |  | more than 95% | 
27 | CC(N)CNc1c2ccccc2[n+](C)c2c1[nH]c1ccccc12.[I-] (stereo not drawn) [Example 35] | 25 ± 5 | better TMV activity than the ribavirin |  | 
28 | CCCNc1c2ccccc2[n+](C)c2c1[nH]c1ccccc12 [Example 23] | 30 ± 0 |  |  | 
29 | Cc1ccc(S(=O)(=O)n2c3ccc(Br)cc3c3c2cc2ccccc2[n+]3C)cc1.[Cl-] [Example 6] | 40 ± 0 | better TMV activity than the ribavirin |  | comparable to that of commercial Ningnanmycin
30 | C[n+]1c2ccccc2c(NCC2CCCCC2)c2[nH]c3ccccc3c21 [Example 30] | 35 ± 5 |  |  | 
31 | CCNCCNc1c2ccccc2[n+](C)c2c1[nH]c1ccccc12.[I-] [Example 37] | 40 ± 0 |  |  | 
32 | C[n+]1c2ccccc2cc2c1c1ccccc1n2S(=O)(=O)c1ccccc1 [Example 22] | 45 ± 5 |  | more than 50% | 
33 | Cc1ccc(S(=O)(=O)n2c3ccccc3c3c2cc2ccccc2[n+]3Cc2ccccc2)cc1 [Example 21] | 40 ± 0 | better TMV activity than the ribavirin |  | 
34 | Cc1ccc(S(=O)(=O)n2c3ccccc3c3c2cc2ccccc2[n+]3CC2CC2)cc1 [Example 18] | 45 ± 5 | better TMV activity than the ribavirin | more than 50% | 
35 | C[n+]1c2ccccc2c(NCCN)c2[nH]c3ccccc3c21.[I-] [Example 32] | 30 ± 0 |  |  | 
36 | C[n+]1c2ccccc2c(N2CCN(CCN)CC2)c2[nH]c3ccc(Cl)cc3c21.[I-] [Reference Example 2, 11-(4′-(2-aminoethyl)-piperazinyl) substituted cryptolepine iodide salt, reference compound] | 0 |  |  | 
37 | C[n+]1c2ccccc2c(NC2CCNC2)c2[nH]c3ccccc3c21.[I-] (stereo not drawn) [Example 40] | 20 ± 0 | better TMV activity than the ribavirin |  | 
38 | CN1CCC(Nc2c3ccccc3[n+](C)c3c2[nH]c2ccccc23)CC1.[I-] [Example 44] | 55 ± 5 |  | more than 50% | 
39 | Cc1ccc(S(=O)(=O)n2c3ccccc3c3c2cc2ccccc2[n+]3CC(C)(C)C)cc1 [Example 20] | 55 ± 5 | better TMV activity than the ribavirin | more than 50% | comparable to that of commercial Ningnanmycin
40 | CN1CCCC(CNc2c3ccccc3[n+](C)c3c2[nH]c2ccccc23)C1 (stereo not drawn) [Example 46] | 30 ± 0 | better TMV activity than the ribavirin |  | 
41 | CC(C)CCNc1c2ccccc2[n+](C)c2c1[nH]c1ccccc12 [Example 26] | 35 ± 5 | better TMV activity than the ribavirin |  | 
42 | COC(=O)c1ccc2c(c1)cc1c(c3ccccc3n1S(=O)(=O)c1ccc(C)cc1)[n+]2C.[Cl-] [Example 15] | 40 ± 0 |  |  | 
